In patent publication US5635525A, “Benzimidazole derivatives as angiotensin II receptor antagonists, pharmacticals, and treatment of hypertension therewith” (Hoechst Aktiengesellschaft, priority 1991, dated 1997):

What follows are compounds tested against angiotensin II receptor (assay: displacement of 125I- or 3H-angiotensin II from receptor preparations from various organs (liver, lung, adrenal gland, brain etc.)). Conditions: "according to the abovementioned process"; which of the two binding methods is not stated.
Method: Bound and free radioligand are then separated by filtration through micro glass fiber filters (GF51, Schleicher & Schull) on a cell collector (SKATRON).
By measurement of the receptor-bund radioactivity on the filters by means of a beta spectrometer or gamma spectrometer, the degree of displacement of the radioligand from the receptor by the test compounds is determined.

Row | Compound | IC50 [nM]
1 | C=CCOC(=O)N(C(=O)OCC=C)S(=O)(=O)c1ccccc1-c1ccc(Cn2c(CC)nc3c(C)cc(C)nc32)cc1 [Example 15] | 0.8
2 | CCNC(=O)NS(=O)(=O)c1ccccc1-c1ccc(Cn2c(CC)nc3c(C)ccnc32)cc1 [Example 31, 2-Ethyl-3-[(2'-ethylaminocarbonylaminosulfonylbiphenyl-4-yl)methyl]-7-methyl-imidazo[4,5-b]pyridine] | 0.48
3 | 2-n-Butyl-3-[(2'-allylaminocarbonylaminosulfonylbiphenyl-4-yl)-methyl]-3H-imidazo-[4,5-b]/[5,4-b]pyridine [Example 27] | 1.1

Now from value to compound:

Row | IC50 [nM] | Compound
4 | 78 | CCCCc1nc2cccc(C(=O)O)c2n1Cc1ccc2c(Cl)c(C(=O)O)sc2c1 [Example 1, 2-n-Butyl-1-[(2-carboxy-3-chlorobenzo[b]thiophen-6-yl)-methyl]-1H-benzimidazole-7-carboxylic acid]
5 | 149 | CCCCc1nc2cccc(C(=O)O)c2n1Cc1ccn2c(C(=O)O)c(-c3ccccc3)nc2n1 [Example 3, 2-n-Butyl-1-[(3-carboxy-2-phenylimidazo[1,2-a]pyrimidin-7-yl)methyl]-1H-benzimidazole-7-carboxylic acid]
6 | 65 | CCCCc1nc2cccc(C(=O)O)c2n1Cc1ccn2c(C(=O)O)c(-c3ccccc3)nc2c1 [Example 2, 2-n-Butyl-1-[(3-carboxy-2-phenylimidazo[1,2-a]pyridin-7-yl)methyl]-1H-benzimidazole-7-carboxylic acid]
7 | 1.8 | CCCNC(=O)NS(=O)(=O)c1ccccc1-c1ccc(Cn2c(CC)nc3c(C)cc(C)nc32)cc1 [Example 51]
8 | 0.74 | CCCCc1nc2cccc(C(=O)O)c2n1Cc1ccc(-c2ccccc2S(=O)(=O)NC(=O)OCC)cc1 [Example 19, 2-n-Butyl-1-[(2'-ethoxycarbonylaminosulfonylbiphenyl-4-yl)methyl]-1H-benzimidazole-7-carboxylic acid]
